Experimental data taken from PMC10870243 (Clinical and Translational Science, 2024).
Read-outs that look alike come from different tables or passages of the source.

Assays:
P‐glycoprotein (Pgp) = P‐glycoprotein (Pgp) (Homo sapiens, UniProt P08183); test: In vitro efflux transporter study, P-glycoprotein; type: in vitro ADME
[1] = type: in vivo, human
CYP3A [2] = test: In vitro CYP3A time-dependent inhibition; type: in vitro ADME; conditions: 0–300 μM
[3] = Phase I DDI study: safety and tolerability; type: in vivo, human; conditions: for overall safety and tolerability: healthy participants, clesacostat 15 mg b.i.d., ervogastat 300 mg b.i.d.
[4] = target: T1, breast cancer resistance protein (BCRP) (Homo sapiens, UniProt Q9UNQ0); test: In vitro efflux transporter study, BCRP; type: in vitro ADME
T1 sequence (Q9UNQ0 1-655): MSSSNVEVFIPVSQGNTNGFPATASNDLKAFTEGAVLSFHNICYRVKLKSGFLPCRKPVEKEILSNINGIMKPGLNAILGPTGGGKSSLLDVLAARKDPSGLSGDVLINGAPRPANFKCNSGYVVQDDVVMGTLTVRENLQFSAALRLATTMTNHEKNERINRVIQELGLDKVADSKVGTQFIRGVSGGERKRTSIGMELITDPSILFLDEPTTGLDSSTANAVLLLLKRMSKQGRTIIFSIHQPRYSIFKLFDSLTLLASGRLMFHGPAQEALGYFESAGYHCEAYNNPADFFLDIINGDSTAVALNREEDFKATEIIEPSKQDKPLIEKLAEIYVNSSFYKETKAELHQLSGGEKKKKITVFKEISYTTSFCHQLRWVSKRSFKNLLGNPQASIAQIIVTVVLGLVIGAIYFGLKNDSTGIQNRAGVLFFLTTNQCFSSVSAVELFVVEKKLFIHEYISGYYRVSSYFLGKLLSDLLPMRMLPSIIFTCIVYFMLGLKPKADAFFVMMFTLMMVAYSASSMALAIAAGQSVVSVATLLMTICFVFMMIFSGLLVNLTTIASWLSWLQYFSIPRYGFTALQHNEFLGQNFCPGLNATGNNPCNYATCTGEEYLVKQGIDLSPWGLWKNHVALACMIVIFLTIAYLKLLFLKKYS

CYP3A [5] = test: In vitro CYP3A induction in human hepatocytes; type: in vitro ADME
[6] = type: in vivo, human; conditions: for T max / Tmax: median (range); for PTR (peak-to-trough ratio): geometric mean; for CL/F: geometric mean (%CV); for Tmax: T max
CYP3A [7] = conditions: healthy adults, total daily dose ≤720 mg; cited from earlier work
[8] = clesacostat 15 mg b.i.d. co-administered with ervogastat 300 mg b.i.d.
[9] = same participant, Day 9 (7 days clesacostat alone then 2 days with ervogastat)
[10] = ervogastat 300 mg + clesacostat 15 mg b.i.d., Day 14
[11] = ervogastat 300 mg b.i.d. alone, Day 7

P‐glycoprotein (Pgp), sequence (P08183 whole entry): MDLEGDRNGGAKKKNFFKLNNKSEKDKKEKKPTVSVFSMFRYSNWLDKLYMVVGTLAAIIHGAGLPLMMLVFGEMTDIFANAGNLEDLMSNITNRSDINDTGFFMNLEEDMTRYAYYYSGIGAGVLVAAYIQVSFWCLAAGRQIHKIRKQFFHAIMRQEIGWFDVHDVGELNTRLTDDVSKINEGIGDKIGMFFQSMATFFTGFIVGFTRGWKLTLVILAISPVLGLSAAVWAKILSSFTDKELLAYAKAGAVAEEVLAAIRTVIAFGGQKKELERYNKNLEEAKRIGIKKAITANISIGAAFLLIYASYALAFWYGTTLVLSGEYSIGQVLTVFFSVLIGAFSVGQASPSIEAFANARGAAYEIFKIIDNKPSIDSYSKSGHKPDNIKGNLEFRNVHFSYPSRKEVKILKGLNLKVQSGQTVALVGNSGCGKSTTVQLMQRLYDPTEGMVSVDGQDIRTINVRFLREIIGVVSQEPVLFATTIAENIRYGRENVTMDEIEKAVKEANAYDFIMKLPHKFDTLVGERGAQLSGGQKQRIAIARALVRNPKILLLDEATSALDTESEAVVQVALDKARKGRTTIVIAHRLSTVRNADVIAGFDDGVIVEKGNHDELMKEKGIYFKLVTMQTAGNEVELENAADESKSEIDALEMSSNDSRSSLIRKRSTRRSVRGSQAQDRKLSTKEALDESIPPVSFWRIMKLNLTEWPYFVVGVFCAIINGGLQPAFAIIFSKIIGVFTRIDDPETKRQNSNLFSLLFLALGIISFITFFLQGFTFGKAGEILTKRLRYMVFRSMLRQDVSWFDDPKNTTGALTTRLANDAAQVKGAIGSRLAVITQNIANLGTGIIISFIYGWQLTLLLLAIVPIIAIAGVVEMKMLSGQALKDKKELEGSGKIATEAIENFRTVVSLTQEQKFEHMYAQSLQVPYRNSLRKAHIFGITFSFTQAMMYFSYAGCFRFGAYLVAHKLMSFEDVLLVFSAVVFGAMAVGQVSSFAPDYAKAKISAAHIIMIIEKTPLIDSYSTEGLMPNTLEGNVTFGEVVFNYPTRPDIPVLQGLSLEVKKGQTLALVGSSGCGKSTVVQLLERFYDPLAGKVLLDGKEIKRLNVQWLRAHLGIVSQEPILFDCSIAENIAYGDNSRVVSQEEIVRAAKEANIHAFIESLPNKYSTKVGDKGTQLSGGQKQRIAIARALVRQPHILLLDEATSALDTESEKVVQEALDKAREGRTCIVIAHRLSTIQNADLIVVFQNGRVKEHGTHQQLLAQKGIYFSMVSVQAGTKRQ

**Q.** With COc1cc(C(=O)N2CCC3(CC2)CC(=O)c2c(cnn2C(C)C)C3)cc(-c2ccc(C(=O)O)cc2)n1 [clesacostat] as the compound, how does the “substrate for Pgp” value (P‐glycoprotein (Pgp)) read?
**A.** substrates

**Q.** What about the “decrease in mean systemic exposure based on AUCtau” value [1, 8] of the same compound?
**A.** 19%

**Q.** What about the “decrease in mean systemic exposure based on C max” value [1, 8] of the same compound?
**A.** 12%

**Q.** What about the AUC ([1]; human, plasma, oral, 15 mg) of the same compound?
**A.** 12100 ng·h/mL

**Q.** And the Cmax ([1]; human, plasma, oral, 15 mg)?
**A.** 1340 ng/mL

**Q.** And the Tmax ([1]; human, plasma, oral, 15 mg)?
**A.** 4 h

**Q.** And the “composite slope based on observed inactivation rate constant (k obs)” value (CYP3A [2]; midazolam as probe)?
**A.** 0.452 M⁻¹ s⁻¹

**Q.** What about the “composite slope based on observed inactivation rate constant (k obs)” value (CYP3A [2]; testosterone as probe) of the same compound?
**A.** 0.398 M⁻¹ s⁻¹

**Q.** What about the “overall safety and tolerability” value [3] of the same compound?
**A.** generally safe and well tolerated

**Q.** And the ALT elevation [3, 9]?
**A.** 3.8 × ULN

**Q.** And the AST elevation [3, 9]?
**A.** 2.9 × ULN

**Q.** And the GGT elevation [3, 9]?
**A.** 3.3 × ULN

**Q.** What about the “substrate for BCRP” value [4] of the same compound?
**A.** substrates

**Q.** What does the source list for CCOc1cccnc1Oc1cncc(-c2ncc(C(=O)N[C@H]3CCOC3)cn2)c1 [ervogastat]?
**A.** inhibition of Pgp (P‐glycoprotein (Pgp)): may inhibit; substrate for Pgp (P‐glycoprotein (Pgp)): substrates; EC50 (CYP3A [5]): 21.4 to 37.2 µM; overall safety and tolerability [3]: generally safe and well tolerated; T max ([6]; ervogastat 300 mg + clesacostat 15 mg b.i.d., Day 14, n=9): 2.00 (1.00–2.00) h; PTR (peak-to-trough ratio) [6, 10]: 150; CL/F [6, 10]: 31.76 (34) L/h; T max ([6]; ervogastat 300 mg b.i.d. alone, Day 7, n=9): 2.00 (1.00–4.00) h; PTR (peak-to-trough ratio) [6, 11]: 94.3; CL/F [6, 11]: 34.41 (19) L/h; AUC ([6]; human, plasma, oral, 300 mg): 8720 ng·h/mL; Cmax ([6]; human, plasma, oral, 300 mg): 2390 ng/mL; Tmax ([6]; human, plasma, oral, 300 mg, ervogastat 300 mg b.i.d. alone, Day 7, n=9): ~2 h; Tmax ([6]; human, plasma, oral, ervogastat 300 mg + clesacostat 15 mg b.i.d., Day 14, n=9): ~2 h; inhibition of BCRP [4]: may inhibit; substrate for BCRP [4]: substrates; change in 4β-hydroxycholesterol (CYP3A [7]): no changes
